{"source": "patent US12447156B2", "about": "“Treating progressive familial intrahepatic cholestasis (PFIC) with IBAT inhibitors” (ALBIREO AB, priority 2020, dated 2025)", "key": {"children with PFIC": {"tested_on": "children with PFIC", "assay": "Pooled analysis of PEDFIC 1 and PEDFIC 2 (up to 48 weeks): efficacy, sleep, responders vs nonresponders", "assay_type": "in vivo, human", "description": "This example describes key outcomes with odevixibat in children with PFIC1 (familial intrahepatic cholestasis 1 [FIC1] deficiency) or PFIC2 ((bile salt export pump [BSEP] deficiency) based on pooled analysis of data from the phase 3 PEDFIC 1 (P1; NCT03566238) and PEDFIC 2 (P2; NCT03659916) studies. This pooled analysis covers up to 48 weeks of odevixibat treatment from P1 and through the planned P2 interim data cut. The following outcomes are described: change in serum bile acids (sBAs), change in pruritus score (measured using the PRUCISION scale; range: 0-4), evaluation of growth and sleep parameters, and safety monitoring. Mean changes in autotaxin (linked to cholestatic pruritus intensity) and plasma 7α-hydroxy-4-cholesten-3-one (p-C4; marker of bile acid synthesis) levels were also summarized.\nPatient sleep was evaluated based on caregiver report using the PRUCISION scale and via the clinician- or caregiver-reported Global Impression of Change (CGIC or CaGIC, respectively) sleep scales. Treatment response was defined as an sBA response (sBAs<65 or <102 μmol/L for patients with PFIC1 and PFIC2, respectively) or a pruritus response (a ≥1-point drop from baseline in pruritus score). Mean decreases in caregiver-reported percentage of days with scratching associated with bleeding, needing help falling asleep, and needing soothing were greater among Rs vs NRs (Table 10). At week 48, clinicians and caregivers reported that ≥88% of Rs had moderately or very much better sleep since starting odevixibat (Table 10).\nUsing pooled data from these studies, changes in parameters of cholestasis, pruritus, and hepatic laboratory markers in patients who responded to odevixibat treatment (Rs) vs treatment nonresponders (NRs). Two responder definitions were examined: 1) sBA response (i.e., sBAs<65 or <102 μmol/L for PFIC1 and PFIC2, respectively) and 2) sBA response or pruritus response (i.e., a ≥1-point drop from baseline in PRUCISION score)."}, "[1]": {"tested_on": "patients with PFIC with prior PEBD surgery", "assay": "PEDFIC 1/2 post hoc subgroup: patients with prior partial external biliary diversion (PEBD)", "assay_type": "in vivo, human", "set-up": "key: Y: sBAs reduced ≥70% or levels ≤70 μmol/L at last assesment; N, no", "conditions": "Patient 10 (prior PEBD, PFIC2; PEDFIC 2 only, 120 μg/kg/d; 35 weeks exposure)", "protocol": "One surgical treatment option for patients with PFIC is partial external biliary diversion (PEBD), which can be used to reduce bile acid levels in patients with medically refractory pruritus. However, PEBD is not successful in all patients. […] This post hoc subgroup analysis evaluated the safety and efficacy of odevixibat in patients enrolled in the PEDFIC studies who had PEBD surgery prior to study entry.\nIn the double-blind PEDFIC 1 study, children with PFIC1 or PFIC2 were randomized to placebo or 40 or 120 μg/kg/day odevixibat for 24 weeks. In PEDFIC 2, an ongoing, open-label extension study, patients from PEDFIC 1 or newly enrolled patients with any PFIC subtype receive odevixibat 120 μg/kg/day. In both PEDFIC 1 and PEDFIC 2, eligible patients had elevated sBAs and significant pruritus at screening. Changes over time in sBA levels and observer-reported pruritus (range: 0-4; higher scores indicate worse symptoms), sleep parameters, and quality of life (QoL; assessed with the Pediatric Quality of Life Inventory [PedsQL]) were evaluated in the subgroup of patients from PEDFIC 1 and/or PEDFIC 2 with a medical history of PEBD surgery performed prior to study enrollment."}, "[2]": {"conditions": "sBA or pruritus response No, weeks 45-48, n 2"}, "[3]": {"conditions": "sBA or pruritus response Yes, weeks 1-4, n 47"}, "[4]": {"conditions": "sBA or pruritus response Yes, weeks 21-24, n 34"}, "[5]": {"conditions": "sBA or pruritus response Yes, weeks 45-48, n 18"}, "[6]": {"conditions": "week 4, sBA or Pruritus Response No"}, "[7]": {"conditions": "week 4, sBA or Pruritus Response Yes"}, "[8]": {"conditions": "week 24, sBA or Pruritus Response No"}, "[9]": {"conditions": "week 24, sBA or Pruritus Response Yes"}, "[10]": {"conditions": "week 48, sBA or Pruritus Response No"}, "[11]": {"conditions": "week 48, sBA or Pruritus Response Yes"}}, "data": [{"smiles": "CCCCC1(CCCC)CN(c2ccccc2)c2cc(SC)c(OCC(=O)N[C@@H](C(=O)N[C@@H](CC)C(=O)O)c3ccc(O)cc3)cc2S(=O)(=O)N1", "note": "[Odevixibat, 1,1-dioxo-3,3-dibutyl-5-phenyl-7-methylthio-8-(N-{(R)-α-[N-((S)-1-carboxypropyl)carbamoyl]-4-hydroxybenzyl}carbamoylmethoxy)-2,3,4,5-tetrahydro-1,2,5-benzothiadiazepine]", "values": [{"measurement": "% days sleeping with caregiver, mean change from baseline", "setting": "children with PFIC; [2]", "result": 0.0, "unit": "%"}, {"measurement": "Number of awakenings, mean change from baseline", "setting": "children with PFIC; [2]", "result": "−4.3"}, {"measurement": "CaGIC sleep, moderately or very much better", "setting": "children with PFIC; sBA or pruritus response Yes, week 4, n 39", "result": 48.7, "unit": "%"}, {"measurement": "CGIC sleep, moderately or very much better", "setting": "children with PFIC; sBA or pruritus response Yes, week 4, n 42", "result": 57.1, "unit": "%"}, {"measurement": "CaGIC sleep, moderately or very much better", "setting": "children with PFIC; sBA or pruritus response Yes, week 24, n 27", "result": 70.4, "unit": "%"}, {"measurement": "CGIC sleep, moderately or very much better", "setting": "children with PFIC; sBA or pruritus response Yes, week 24, n 32", "result": 59.4, "unit": "%"}, {"measurement": "CaGIC sleep, moderately or very much better", "setting": "children with PFIC; sBA or pruritus response Yes, week 48, n 15", "result": 93.3, "unit": "%"}, {"measurement": "CGIC sleep, moderately or very much better", "setting": "children with PFIC; sBA or pruritus response Yes, week 48, n 18", "result": 88.9, "unit": "%"}, {"measurement": "% Days needing help falling asleep, mean change from baseline", "setting": "children with PFIC; [3]", "result": "−23.1", "unit": "%"}, {"measurement": "% Days needing soothing, mean change from baseline", "setting": "children with PFIC; [3]", "result": "−22.5", "unit": "%"}, {"measurement": "% Days with scratching associated with bleeding, mean change from baseline", "setting": "children with PFIC; [3]", "result": "−16.8", "unit": "%"}, {"measurement": "% days sleeping with caregiver, mean change from baseline", "setting": "children with PFIC; [3]", "result": "−23.1", "unit": "%"}, {"measurement": "Number of awakenings, mean change from baseline", "setting": "children with PFIC; [3]", "result": "-−3.1"}, {"measurement": "% Days needing help falling asleep, mean change from baseline", "setting": "children with PFIC; [4]", "result": "−56.1", "unit": "%"}, {"measurement": "% Days needing soothing, mean change from baseline", "setting": "children with PFIC; [4]", "result": "−58.8", "unit": "%"}, {"measurement": "% Days with scratching associated with bleeding, mean change from baseline", "setting": "children with PFIC; [4]", "result": "−30.9", "unit": "%"}, {"measurement": "% days sleeping with caregiver, mean change from baseline", "setting": "children with PFIC; [4]", "result": "−48.5", "unit": "%"}, {"measurement": "Number of awakenings, mean change from baseline", "setting": "children with PFIC; [4]", "result": "-−1.9"}, {"measurement": "% Days needing help falling asleep, mean change from baseline", "setting": "children with PFIC; [5]", "result": "−73.0", "unit": "%"}, {"measurement": "% Days needing soothing, mean change from baseline", "setting": "children with PFIC; [5]", "result": "−74.6", "unit": "%"}, {"measurement": "% Days with scratching associated with bleeding, mean change from baseline", "setting": "children with PFIC; [5]", "result": "−41.5", "unit": "%"}, {"measurement": "% days sleeping with caregiver, mean change from baseline", "setting": "children with PFIC; [5]", "result": "−69.1", "unit": "%"}, {"measurement": "Number of awakenings, mean change from baseline", "setting": "children with PFIC; [5]", "result": "−11.0"}, {"measurement": "ALT, change from baseline, Mean (SE)", "setting": "children with PFIC; week 4, sBA Response No", "result": "21 (16) U/L"}, {"measurement": "Total bilirubin, change from baseline, Mean (SE)", "setting": "children with PFIC; week 4, sBA Response No", "result": "−10 (9) μmol/L"}, {"measurement": "ALT, change from baseline, Mean (SE)", "setting": "children with PFIC; week 4, sBA Response Yes", "result": "−28 (37) U/L"}, {"measurement": "Total bilirubin, change from baseline, Mean (SE)", "setting": "children with PFIC; week 4, sBA Response Yes", "result": "−8 (4) μmol/L"}, {"measurement": "ALT, change from baseline, Mean (SE)", "setting": "children with PFIC; [6]", "result": "9 (4) U/L"}, {"measurement": "Total bilirubin, change from baseline, Mean (SE)", "setting": "children with PFIC; [6]", "result": "−14 (11) μmol/L"}, {"measurement": "ALT, change from baseline, Mean (SE)", "setting": "children with PFIC; [7]", "result": "−2 (24) U/L"}, {"measurement": "Total bilirubin, change from baseline, Mean (SE)", "setting": "children with PFIC; [7]", "result": "−6 (4) μmol/L"}, {"measurement": "ALT, change from baseline, Mean (SE)", "setting": "children with PFIC; week 24, sBA Response No", "result": "−10 (11) U/L"}, {"measurement": "Total bilirubin, change from baseline, Mean (SE)", "setting": "children with PFIC; week 24, sBA Response No", "result": "−19 (10) μmol/L"}, {"measurement": "ALT, change from baseline, Mean (SE)", "setting": "children with PFIC; week 24, sBA Response Yes", "result": "−67 (42) U/L"}, {"measurement": "Total bilirubin, change from baseline, Mean (SE)", "setting": "children with PFIC; week 24, sBA Response Yes", "result": "−23 (8) μmol/L"}, {"measurement": "ALT, change from baseline, Mean (SE)", "setting": "children with PFIC; [8]", "result": "5 (8) U/L"}, {"measurement": "Total bilirubin, change from baseline, Mean (SE)", "setting": "children with PFIC; [8]", "result": "−23 (13) μmol/L"}, {"measurement": "ALT, change from baseline, Mean (SE)", "setting": "children with PFIC; [9]", "result": "−56 (27) U/L"}, {"measurement": "Total bilirubin, change from baseline, Mean (SE)", "setting": "children with PFIC; [9]", "result": "−19 (7) μmol/L"}, {"measurement": "ALT, change from baseline, Mean (SE)", "setting": "children with PFIC; week 48, sBA Response No", "result": "−32 (22) U/L"}, {"measurement": "Total bilirubin, change from baseline, Mean (SE)", "setting": "children with PFIC; week 48, sBA Response No", "result": "−6 (14) μmol/L"}, {"measurement": "ALT, change from baseline, Mean (SE)", "setting": "children with PFIC; week 48, sBA Response Yes", "result": "−112 (57) U/L"}, {"measurement": "Total bilirubin, change from baseline, Mean (SE)", "setting": "children with PFIC; week 48, sBA Response Yes", "result": "−25 (11) μmol/L"}, {"measurement": "ALT, change from baseline, Mean (SE)", "setting": "children with PFIC; [10]", "result": "−5 (15) U/L"}, {"measurement": "Total bilirubin, change from baseline, Mean (SE)", "setting": "children with PFIC; [10]", "result": "1 (20) μmol/L"}, {"measurement": "ALT, change from baseline, Mean (SE)", "setting": "children with PFIC; [11]", "result": "−108 (48) U/L"}, {"measurement": "Total bilirubin, change from baseline, Mean (SE)", "setting": "children with PFIC; [11]", "result": "−25 (9) μmol/L"}, {"measurement": "responders with moderately or very much better sleep since starting odevixibat (clinician and caregiver reported)", "setting": "children with PFIC; week 48, patients with sBA response or pruritus response", "result": "≥ 88", "unit": "%"}, {"measurement": "sBA Responder?", "setting": "[1]", "result": "Y"}]}]}
